Reference: US20230293526A1, “METHOD FOR TREATING CANCER WITH A REVERSE TRANSCRIPTASE INHIBITOR” (PrimeFour Therapeutics, Inc., priority 2020, published 2023)

Legend:
human LINE-1 = experiment: Human LINE-1 (L1) retrotransposition dual-luciferase reporter assay in HeLa cells; assay type: cell-based; conditions: Homo sapiens, HeLa, 72 h, read-out: Human LINE-1 IC50 (Human L1 activity inhibition)
Outline: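 Compound dilution series (final DMSO 0.2%) added right after transfecting HeLa cells with the pYX017 L1 dual-luciferase reporter; 72 h culture at 37 °C, 5% CO2, triplicates. IC50 fitted by non-linear logistic regression to firefly-to-Renilla luminescence ratio (×10,000).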

cancer cell lines = experiment: Cancer cell proliferation activity of representative nucleosides, CellTiterGlo 72 h (Example 7, Tables 8 and 9); assay type: cell-based; conditions: 72 h
Outline: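 Percent viability was set against 0.1% DMSO (100%) and 10 μM staurosporine (0%), with signal from CellTiterGlo luminescence. Dose-response treatment began one day after seeding and lasted 72 h at 37° C under 5% or 10% CO2, with 0.1% final DMSO.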

Structure (SMILES): C#C[C@]1(CO)O[C@@H](n2cnc3c(=O)[nH]c(N)nc32)C[C@@H]1O [compound 13]
- IC50 (human LINE-1): 0.00051 µM
- IC50 (cancer cell lines; 72 h, 5637, bladder): 2.27 µM
- IC50 (cancer cell lines; CLS439, bladder): > 50 µM
- IC50 (cancer cell lines; HS729, muscle): 1.51 µM
- IC50 (cancer cell lines; J82, bladder): 1.97 µM
- IC50 (cancer cell lines; JAR, placenta): > 50 µM
- IC50 (cancer cell lines; MT3, breast): 0.37 µM
- IC50 (cancer cell lines; PC3, prostate): 1.8 µM
- IC50 (cancer cell lines; RD, muscle): > 50 µM
- IC50 (cancer cell lines; T24, bladder): 4.54 µM
- IC50 (cancer cell lines; Homo sapiens, 22Rv1, 72 h, 22RV1, prostate): 2.22 µM
- IC50 (cancer cell lines; Homo sapiens, 786-0, 72 h, 786O, kidney): > 50 µM
- IC50 (cancer cell lines; Homo sapiens, A204, 72 h, A204, muscle): 0.27 µM
- IC50 (cancer cell lines; Homo sapiens, A549, 72 h, A549, lung): 2.06 µM
- IC50 (cancer cell lines; Homo sapiens, A673, 72 h, A673, bone): > 50 µM
- IC50 (cancer cell lines; Homo sapiens, A2780, 72 h, A2780, ovary): 15.6 µM
- IC50 (cancer cell lines; Homo sapiens, A-375, 72 h, A375, skin): 2.35 µM
- IC50 (cancer cell lines; Homo sapiens, A-431, 72 h, A431, skin): 3.03 µM
- IC50 (cancer cell lines; Homo sapiens, ACHN, kidney): 1.44 µM
- IC50 (cancer cell lines; Homo sapiens, ASPC1, 72 h, ASPC1, pancreas): 1.33 µM
- IC50 (cancer cell lines; Homo sapiens, BT-20, 72 h, BT20, breast): > 50 µM
- IC50 (cancer cell lines; Homo sapiens, BXPC-3, 72 h, BXPC3, pancreas): 1.43 µM
- IC50 (cancer cell lines; Homo sapiens, C-33-A, C33A, endometrial): 2.03 µM
- IC50 (cancer cell lines; Homo sapiens, CAKI-1, 72 h, CAKI1, kidney): 1.84 µM
- IC50 (cancer cell lines; Homo sapiens, COLO 205, 72 h, COLO205, colon): 1.47 µM
- IC50 (cancer cell lines; Homo sapiens, COLO-678, 72 h, COLO678, colon): 4.09 µM
- IC50 (cancer cell lines; Homo sapiens, Ca-Ski, CASKI, endometrial): > 50 µM
- IC50 (cancer cell lines; Homo sapiens, Caco-2, 72 h, CACO2, colon): > 50 µM
- IC50 (cancer cell lines; Homo sapiens, Calu-6, 72 h, CALU6, lung): > 50 µM
- IC50 (cancer cell lines; Homo sapiens, DLD-1, 72 h, DLD1, colon): > 50 µM
- IC50 (cancer cell lines; Homo sapiens, DU-145, 72 h, DU145, prostate): 4.07 µM
- IC50 (cancer cell lines; Homo sapiens, EFO-21, 72 h, EFO21, ovary): 4 µM
- IC50 (cancer cell lines; Homo sapiens, EJ-28, 72 h, EJ28, bladder): 6.82 µM
- IC50 (cancer cell lines; Homo sapiens, Granta-519, 72 h, GRANTA-519, hematological): 2.44 µM
- IC50 (cancer cell lines; Homo sapiens, HCT-15, 72 h, HCT15, colon): > 50 µM
- IC50 (cancer cell lines; Homo sapiens, HCT-116, 72 h, HCT116, colon): 3.37 µM
- IC50 (cancer cell lines; Homo sapiens, HEK293, 72 h, HEK293, kidney): 7.69 µM
- IC50 (cancer cell lines; Homo sapiens, HL-60, 72 h, HL-60, hematological): 2.06 µM
- IC50 (cancer cell lines; Homo sapiens, HT-29, 72 h, HT29, colon): 2.28 µM
- IC50 (cancer cell lines; Homo sapiens, HT-1080, 72 h, HT1080, connective tissue): 3.88 µM
- IC50 (cancer cell lines; Homo sapiens, HeLa, endometrial): 1.2 µM
- IC50 (cancer cell lines; Homo sapiens, HepG2, 72 h, HEPG2, liver): 1.24 µM
- IC50 (cancer cell lines; Homo sapiens, Hs-578T, HS578T, breast): > 50 µM
- IC50 (cancer cell lines; Homo sapiens, IGROV-1, 72 h, IGROV1, ovary): 2.76 µM
- IC50 (cancer cell lines; Homo sapiens, IMR-90, 72 h, IMR90, lung): > 50 µM
- IC50 (cancer cell lines; Homo sapiens, JEG-3, 72 h, JEG3, placenta): > 50 µM
- IC50 (cancer cell lines; Homo sapiens, JIMT-1, 72 h, JIMT1, breast): 2.04 µM
- IC50 (cancer cell lines; Homo sapiens, K562, 72 h, K-562, hematological): > 50 µM
- IC50 (cancer cell lines; Homo sapiens, Kasumi 1, 72 h, KASUMI-1, hematological): 0.1 µM
- IC50 (cancer cell lines; Homo sapiens, L-363, 72 h, L-363, hematological): > 50 µM
- IC50 (cancer cell lines; Homo sapiens, LoVo, colon): 3.1 µM
- IC50 (cancer cell lines; Homo sapiens, MCF7, 72 h, MCF7, breast): 5.95 µM
- IC50 (cancer cell lines; Homo sapiens, MDA-MB-231, 72 h, MDAMB231, breast): 1.32 µM
- IC50 (cancer cell lines; Homo sapiens, MDA-MB-435, 72 h, MDAMB435, skin): > 50 µM
- IC50 (cancer cell lines; Homo sapiens, MDA-MB-436, 72 h, MDAMB436, breast): 1.5 µM
- IC50 (cancer cell lines; Homo sapiens, MDA-MB-468, 72 h, MDAMB468, breast): > 50 µM
- IC50 (cancer cell lines; Homo sapiens, MG-63, 72 h, MG63, bone): > 50 µM
- IC50 (cancer cell lines; Homo sapiens, MHH-ES-1, 72 h, MHHES1, bone): > 50 µM
- IC50 (cancer cell lines; Homo sapiens, MIA PaCa-2, 72 h, MIAPACA2, pancreas): 6.24 µM
- IC50 (cancer cell lines; Homo sapiens, MINO, hematological): 0.46 µM
- IC50 (cancer cell lines; Homo sapiens, MV4-11, 72 h, MV4-11, hematological): 1.02 µM
- IC50 (cancer cell lines; Homo sapiens, NCI-H23, 72 h, NCI-H23, lung): 4.67 µM
- IC50 (cancer cell lines; Homo sapiens, NCI-H82, 72 h, NCIH82, lung): 15.4 µM
- IC50 (cancer cell lines; Homo sapiens, NCI-H292, 72 h, NCIH292, lung): 1.07 µM
- IC50 (cancer cell lines; Homo sapiens, NCI-H460, 72 h, NCIH460, ung): 1.41 µM
- IC50 (cancer cell lines; Homo sapiens, OVCAR-3, 72 h, OVCAR3, ovary): 0.76 µM
- IC50 (cancer cell lines; Homo sapiens, OVCAR-4, 72 h, OVCAR4, ovary): > 50 µM
- IC50 (cancer cell lines; Homo sapiens, PANC-1, 72 h, PANC1, pancreas): > 50 µM
- IC50 (cancer cell lines; Homo sapiens, PLC-PRF-5, 72 h, PLCPRF5, liver): 2.1 µM
- IC50 (cancer cell lines; Homo sapiens, Panc1005, 72 h, PANC1005, pancreas): 3.08 µM
- IC50 (cancer cell lines; Homo sapiens, Ramos, hematological): 1.17 µM
- IC50 (cancer cell lines; Homo sapiens, SAOS-2, 72 h, SAOS2, bone): 1.66 µM
- IC50 (cancer cell lines; Homo sapiens, SF-268, 72 h, SF268, brain): > 50 µM
- IC50 (cancer cell lines; Homo sapiens, SF-295, 72 h, SF295, brain): 7.16 µM
- IC50 (cancer cell lines; Homo sapiens, SK-BR-3, 72 h, SKBR3, breast): 4.61 µM
- IC50 (cancer cell lines; Homo sapiens, SK-HEP1, 72 h, SKHEP1, liver): 2.29 µM
- IC50 (cancer cell lines; Homo sapiens, SK-LMS-1, 72 h, SKLMS1, uterus): 2.38 µM
- IC50 (cancer cell lines; Homo sapiens, SK-MEL-5, 72 h, SKMEL5, skin): > 50 µM
- IC50 (cancer cell lines; Homo sapiens, SK-MEL-28, 72 h, SKMEL28, skin): 6.06 µM
- IC50 (cancer cell lines; Homo sapiens, SK-N-AS, SKNAS, brain): 2.44 µM
- IC50 (cancer cell lines; Homo sapiens, SK-N-SH, SKNSH, brain): 2.29 µM
- IC50 (cancer cell lines; Homo sapiens, SK-OV-3, 72 h, SKOV3, ovary): 2.02 µM
- IC50 (cancer cell lines; Homo sapiens, SNB-75, 72 h, SNB75, brain): 12.8 µM
- IC50 (cancer cell lines; Homo sapiens, SU-DHL10, 72 h, SU-DHL-10, hematological): 5.6 µM
- IC50 (cancer cell lines; Homo sapiens, SU-DHL-6, 72 h, SU-DHL-6, hematological): 4.19 µM
- IC50 (cancer cell lines; Homo sapiens, SW-620, 72 h, SW620, colon): 1.82 µM
- IC50 (cancer cell lines; Homo sapiens, TE-671, 72 h, TE671, muscle): > 50 µM
- IC50 (cancer cell lines; Homo sapiens, THP-1, 72 h, THP-1, hematological): 1.97 µM
- IC50 (cancer cell lines; Homo sapiens, U2OS, bone): > 50 µM
- IC50 (cancer cell lines; Homo sapiens, U-87 MG, U87MG, brain): 2.38 µM
- IC50 (cancer cell lines; Homo sapiens, UMUC3, 72 h, UMUC3, bladder): > 50 µM
- IC50 (cancer cell lines; Homo sapiens, UO-31, 72 h, UO31, kidney): 3.29 µM
- IC50 (cancer cell lines; Homo sapiens, WSU-NHL, hematological): 2.77 µM
- IC50 (cancer cell lines; NCI-H358M, NCIH358M, lung): 0.33 µM
- IC50 (cancer cell lines; PBMC, hematological): 0.19 µM
- IC50 (cancer cell lines; RD-ES, RDES, bone): 2.48 µM
